Laboratory results reported in ChEMBL document CHEMBL3991601, “The target landscape of clinical kinase drugs” (Science, 2017).
Active and inactive are the calls of the source.

Molecular target: Adenosine kinase (Homo sapiens, UniProt P55263)
Also: in the data inactive means no Kd found up to 30 µM.

Compound	Kd
CCn1c(=O)c(-c2cc[nH]n2)cc2c(C)nc(N)nc21 [VOXTALISIB]	> 30 µM (inactive)

Molecular target: Chromodomain-helicase-DNA-binding protein 4 (Homo sapiens, UniProt Q14839)
Sequence (Q14839 whole entry): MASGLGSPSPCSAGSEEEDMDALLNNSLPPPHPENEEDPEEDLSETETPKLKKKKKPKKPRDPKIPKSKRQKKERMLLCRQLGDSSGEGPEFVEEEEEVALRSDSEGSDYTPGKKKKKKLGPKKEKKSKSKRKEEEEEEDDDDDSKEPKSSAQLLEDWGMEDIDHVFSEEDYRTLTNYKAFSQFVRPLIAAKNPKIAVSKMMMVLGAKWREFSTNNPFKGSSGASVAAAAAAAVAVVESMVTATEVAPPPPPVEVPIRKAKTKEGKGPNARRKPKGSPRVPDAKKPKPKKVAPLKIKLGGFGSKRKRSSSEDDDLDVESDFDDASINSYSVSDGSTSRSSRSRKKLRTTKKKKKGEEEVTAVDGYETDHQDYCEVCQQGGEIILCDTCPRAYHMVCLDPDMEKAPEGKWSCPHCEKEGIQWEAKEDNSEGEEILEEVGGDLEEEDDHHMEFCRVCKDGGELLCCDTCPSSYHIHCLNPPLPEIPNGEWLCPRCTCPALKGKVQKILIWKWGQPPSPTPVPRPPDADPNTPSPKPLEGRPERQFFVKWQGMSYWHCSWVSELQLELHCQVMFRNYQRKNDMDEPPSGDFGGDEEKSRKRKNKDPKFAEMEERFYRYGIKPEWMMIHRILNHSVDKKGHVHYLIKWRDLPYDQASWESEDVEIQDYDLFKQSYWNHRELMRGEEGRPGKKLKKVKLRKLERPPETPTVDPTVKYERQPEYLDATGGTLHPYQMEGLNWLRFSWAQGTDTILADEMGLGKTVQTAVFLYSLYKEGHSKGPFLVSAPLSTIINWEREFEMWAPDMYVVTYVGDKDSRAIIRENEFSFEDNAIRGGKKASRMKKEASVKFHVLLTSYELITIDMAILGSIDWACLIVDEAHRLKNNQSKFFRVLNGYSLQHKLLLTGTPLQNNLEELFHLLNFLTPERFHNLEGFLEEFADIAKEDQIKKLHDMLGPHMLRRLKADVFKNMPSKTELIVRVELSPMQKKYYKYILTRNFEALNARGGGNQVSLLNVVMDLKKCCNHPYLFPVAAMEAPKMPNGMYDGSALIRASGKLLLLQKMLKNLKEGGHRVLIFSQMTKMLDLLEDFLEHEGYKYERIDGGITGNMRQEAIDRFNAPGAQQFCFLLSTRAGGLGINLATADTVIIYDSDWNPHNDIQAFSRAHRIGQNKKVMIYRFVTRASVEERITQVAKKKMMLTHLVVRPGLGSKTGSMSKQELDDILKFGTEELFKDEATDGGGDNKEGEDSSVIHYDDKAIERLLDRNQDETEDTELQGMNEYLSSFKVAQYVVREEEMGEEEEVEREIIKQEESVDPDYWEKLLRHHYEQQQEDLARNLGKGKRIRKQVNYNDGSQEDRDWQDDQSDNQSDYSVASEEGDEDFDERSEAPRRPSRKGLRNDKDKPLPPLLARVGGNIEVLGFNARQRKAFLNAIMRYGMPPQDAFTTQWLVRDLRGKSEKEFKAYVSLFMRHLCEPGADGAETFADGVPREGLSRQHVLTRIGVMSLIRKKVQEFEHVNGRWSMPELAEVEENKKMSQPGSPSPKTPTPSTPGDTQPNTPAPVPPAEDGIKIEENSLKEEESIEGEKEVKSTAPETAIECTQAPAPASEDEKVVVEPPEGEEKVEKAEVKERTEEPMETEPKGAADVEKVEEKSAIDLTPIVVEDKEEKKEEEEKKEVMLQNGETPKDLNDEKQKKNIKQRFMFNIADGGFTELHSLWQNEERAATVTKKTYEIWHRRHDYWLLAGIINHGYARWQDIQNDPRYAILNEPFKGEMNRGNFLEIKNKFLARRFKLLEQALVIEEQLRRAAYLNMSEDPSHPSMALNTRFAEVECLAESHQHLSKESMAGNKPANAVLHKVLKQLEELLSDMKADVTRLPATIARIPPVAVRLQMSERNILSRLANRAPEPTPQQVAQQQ

Compound	Kd
Cn1ncc(Cl)c1-c1cc(C(=O)N[C@H](CN)Cc2cccc(F)c2)sc1Cl [AFURESERTIB]	> 30 µM (inactive)
O=C(c1ccc(F)c(F)c1Nc1ccc(I)cc1F)N1CC(O)([C@@H]2CCCCN2)C1 [COBIMETINIB]	> 30 µM (inactive)
CCn1c(=O)c(-c2cc[nH]n2)cc2c(C)nc(N)nc21 [VOXTALISIB]	> 30 µM (inactive)

Molecular target: Ephrin type-A receptor 2 (Homo sapiens, UniProt P29317)

Compound	Kd
Cn1ncc(Cl)c1-c1cc(C(=O)N[C@H](CN)Cc2cccc(F)c2)sc1Cl [AFURESERTIB]	> 30 µM (inactive)
O=C(c1ccc(F)c(F)c1Nc1ccc(I)cc1F)N1CC(O)([C@@H]2CCCCN2)C1 [COBIMETINIB]	> 30 µM (inactive)
CCn1c(=O)c(-c2cc[nH]n2)cc2c(C)nc(N)nc21 [VOXTALISIB]	> 30 µM (inactive)

Molecular target: T1, Electron transfer flavoprotein subunit beta (Homo sapiens, UniProt P38117)
T1 sequence (P38117 whole entry): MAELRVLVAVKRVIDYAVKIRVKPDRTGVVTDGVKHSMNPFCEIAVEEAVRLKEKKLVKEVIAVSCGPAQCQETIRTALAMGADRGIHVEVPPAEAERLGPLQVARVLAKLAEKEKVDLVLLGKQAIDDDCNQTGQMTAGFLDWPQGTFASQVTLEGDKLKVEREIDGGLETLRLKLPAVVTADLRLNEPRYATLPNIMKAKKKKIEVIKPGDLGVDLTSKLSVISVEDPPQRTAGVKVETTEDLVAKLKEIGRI

Compound	Kd
Cn1ncc(Cl)c1-c1cc(C(=O)N[C@H](CN)Cc2cccc(F)c2)sc1Cl [AFURESERTIB]	> 30 µM (inactive)
O=C(c1ccc(F)c(F)c1Nc1ccc(I)cc1F)N1CC(O)([C@@H]2CCCCN2)C1 [COBIMETINIB]	> 30 µM (inactive)
CCn1c(=O)c(-c2cc[nH]n2)cc2c(C)nc(N)nc21 [VOXTALISIB]	> 30 µM (inactive)

Molecular target: T2, Phenylalanine--tRNA ligase beta subunit (Homo sapiens, UniProt Q9NSD9)
T2 sequence (Q9NSD9 whole entry): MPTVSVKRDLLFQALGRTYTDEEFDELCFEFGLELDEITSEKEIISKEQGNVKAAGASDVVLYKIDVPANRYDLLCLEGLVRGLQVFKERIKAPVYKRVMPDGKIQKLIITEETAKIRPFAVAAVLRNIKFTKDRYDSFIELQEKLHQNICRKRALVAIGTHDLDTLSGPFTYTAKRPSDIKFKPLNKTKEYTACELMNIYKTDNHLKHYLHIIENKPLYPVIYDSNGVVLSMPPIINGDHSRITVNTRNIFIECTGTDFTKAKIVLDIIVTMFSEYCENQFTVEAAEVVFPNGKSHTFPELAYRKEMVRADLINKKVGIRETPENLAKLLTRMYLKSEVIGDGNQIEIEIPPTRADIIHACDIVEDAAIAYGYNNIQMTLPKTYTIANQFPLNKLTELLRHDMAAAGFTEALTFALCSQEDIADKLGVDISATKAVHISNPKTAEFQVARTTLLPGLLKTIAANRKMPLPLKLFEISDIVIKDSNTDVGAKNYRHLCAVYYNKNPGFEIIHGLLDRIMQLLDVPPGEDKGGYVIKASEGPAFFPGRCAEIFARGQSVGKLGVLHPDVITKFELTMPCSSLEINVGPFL

Compound	Kd
Cn1ncc(Cl)c1-c1cc(C(=O)N[C@H](CN)Cc2cccc(F)c2)sc1Cl [AFURESERTIB]	> 30 µM (inactive)
O=C(c1ccc(F)c(F)c1Nc1ccc(I)cc1F)N1CC(O)([C@@H]2CCCCN2)C1 [COBIMETINIB]	> 30 µM (inactive)
CCn1c(=O)c(-c2cc[nH]n2)cc2c(C)nc(N)nc21 [VOXTALISIB]	> 30 µM (inactive)

Molecular target: Putative heat shock protein HSP 90-beta 2 (Homo sapiens, UniProt Q58FF8)
Sequence (Q58FF8 whole entry): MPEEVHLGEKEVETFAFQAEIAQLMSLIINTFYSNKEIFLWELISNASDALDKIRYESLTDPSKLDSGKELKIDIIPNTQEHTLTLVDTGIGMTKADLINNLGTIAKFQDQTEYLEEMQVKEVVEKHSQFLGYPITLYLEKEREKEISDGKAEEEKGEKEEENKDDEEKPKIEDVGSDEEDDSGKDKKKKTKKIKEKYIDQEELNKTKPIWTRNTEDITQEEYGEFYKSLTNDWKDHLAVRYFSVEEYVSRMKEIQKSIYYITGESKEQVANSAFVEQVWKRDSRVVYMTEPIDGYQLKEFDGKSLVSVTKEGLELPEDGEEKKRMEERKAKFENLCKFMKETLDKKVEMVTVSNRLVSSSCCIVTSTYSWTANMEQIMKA

Compound	Kd
Cn1ncc(Cl)c1-c1cc(C(=O)N[C@H](CN)Cc2cccc(F)c2)sc1Cl [AFURESERTIB]	> 30 µM (inactive)
O=C(c1ccc(F)c(F)c1Nc1ccc(I)cc1F)N1CC(O)([C@@H]2CCCCN2)C1 [COBIMETINIB]	> 30 µM (inactive)
CCn1c(=O)c(-c2cc[nH]n2)cc2c(C)nc(N)nc21 [VOXTALISIB]	> 30 µM (inactive)

Molecular target: Inosine-5'-monophosphate dehydrogenase 2 (Homo sapiens, UniProt P12268)

Compound	Kd
Cn1ncc(Cl)c1-c1cc(C(=O)N[C@H](CN)Cc2cccc(F)c2)sc1Cl [AFURESERTIB]	> 30 µM (inactive)
O=C(c1ccc(F)c(F)c1Nc1ccc(I)cc1F)N1CC(O)([C@@H]2CCCCN2)C1 [COBIMETINIB]	> 30 µM (inactive)
CCn1c(=O)c(-c2cc[nH]n2)cc2c(C)nc(N)nc21 [VOXTALISIB]	> 30 µM (inactive)

Molecular target: Interleukin-1 receptor-associated kinase 1 (Homo sapiens, UniProt P51617)

Compound	Kd
Cn1ncc(Cl)c1-c1cc(C(=O)N[C@H](CN)Cc2cccc(F)c2)sc1Cl [AFURESERTIB]	> 30 µM (inactive)
O=C(c1ccc(F)c(F)c1Nc1ccc(I)cc1F)N1CC(O)([C@@H]2CCCCN2)C1 [COBIMETINIB]	> 30 µM (inactive)
CCn1c(=O)c(-c2cc[nH]n2)cc2c(C)nc(N)nc21 [VOXTALISIB]	> 30 µM (inactive)

Molecular target: Mitogen-activated protein kinase kinase kinase 4 (Homo sapiens, UniProt Q9Y6R4)

Compound	Kd
Cn1ncc(Cl)c1-c1cc(C(=O)N[C@H](CN)Cc2cccc(F)c2)sc1Cl [AFURESERTIB]	> 30 µM (inactive)
O=C(c1ccc(F)c(F)c1Nc1ccc(I)cc1F)N1CC(O)([C@@H]2CCCCN2)C1 [COBIMETINIB]	> 30 µM (inactive)
CCn1c(=O)c(-c2cc[nH]n2)cc2c(C)nc(N)nc21 [VOXTALISIB]	> 30 µM (inactive)

Molecular target: Myosin-14 (Homo sapiens, UniProt Q7Z406)
Sequence (Q7Z406 whole entry): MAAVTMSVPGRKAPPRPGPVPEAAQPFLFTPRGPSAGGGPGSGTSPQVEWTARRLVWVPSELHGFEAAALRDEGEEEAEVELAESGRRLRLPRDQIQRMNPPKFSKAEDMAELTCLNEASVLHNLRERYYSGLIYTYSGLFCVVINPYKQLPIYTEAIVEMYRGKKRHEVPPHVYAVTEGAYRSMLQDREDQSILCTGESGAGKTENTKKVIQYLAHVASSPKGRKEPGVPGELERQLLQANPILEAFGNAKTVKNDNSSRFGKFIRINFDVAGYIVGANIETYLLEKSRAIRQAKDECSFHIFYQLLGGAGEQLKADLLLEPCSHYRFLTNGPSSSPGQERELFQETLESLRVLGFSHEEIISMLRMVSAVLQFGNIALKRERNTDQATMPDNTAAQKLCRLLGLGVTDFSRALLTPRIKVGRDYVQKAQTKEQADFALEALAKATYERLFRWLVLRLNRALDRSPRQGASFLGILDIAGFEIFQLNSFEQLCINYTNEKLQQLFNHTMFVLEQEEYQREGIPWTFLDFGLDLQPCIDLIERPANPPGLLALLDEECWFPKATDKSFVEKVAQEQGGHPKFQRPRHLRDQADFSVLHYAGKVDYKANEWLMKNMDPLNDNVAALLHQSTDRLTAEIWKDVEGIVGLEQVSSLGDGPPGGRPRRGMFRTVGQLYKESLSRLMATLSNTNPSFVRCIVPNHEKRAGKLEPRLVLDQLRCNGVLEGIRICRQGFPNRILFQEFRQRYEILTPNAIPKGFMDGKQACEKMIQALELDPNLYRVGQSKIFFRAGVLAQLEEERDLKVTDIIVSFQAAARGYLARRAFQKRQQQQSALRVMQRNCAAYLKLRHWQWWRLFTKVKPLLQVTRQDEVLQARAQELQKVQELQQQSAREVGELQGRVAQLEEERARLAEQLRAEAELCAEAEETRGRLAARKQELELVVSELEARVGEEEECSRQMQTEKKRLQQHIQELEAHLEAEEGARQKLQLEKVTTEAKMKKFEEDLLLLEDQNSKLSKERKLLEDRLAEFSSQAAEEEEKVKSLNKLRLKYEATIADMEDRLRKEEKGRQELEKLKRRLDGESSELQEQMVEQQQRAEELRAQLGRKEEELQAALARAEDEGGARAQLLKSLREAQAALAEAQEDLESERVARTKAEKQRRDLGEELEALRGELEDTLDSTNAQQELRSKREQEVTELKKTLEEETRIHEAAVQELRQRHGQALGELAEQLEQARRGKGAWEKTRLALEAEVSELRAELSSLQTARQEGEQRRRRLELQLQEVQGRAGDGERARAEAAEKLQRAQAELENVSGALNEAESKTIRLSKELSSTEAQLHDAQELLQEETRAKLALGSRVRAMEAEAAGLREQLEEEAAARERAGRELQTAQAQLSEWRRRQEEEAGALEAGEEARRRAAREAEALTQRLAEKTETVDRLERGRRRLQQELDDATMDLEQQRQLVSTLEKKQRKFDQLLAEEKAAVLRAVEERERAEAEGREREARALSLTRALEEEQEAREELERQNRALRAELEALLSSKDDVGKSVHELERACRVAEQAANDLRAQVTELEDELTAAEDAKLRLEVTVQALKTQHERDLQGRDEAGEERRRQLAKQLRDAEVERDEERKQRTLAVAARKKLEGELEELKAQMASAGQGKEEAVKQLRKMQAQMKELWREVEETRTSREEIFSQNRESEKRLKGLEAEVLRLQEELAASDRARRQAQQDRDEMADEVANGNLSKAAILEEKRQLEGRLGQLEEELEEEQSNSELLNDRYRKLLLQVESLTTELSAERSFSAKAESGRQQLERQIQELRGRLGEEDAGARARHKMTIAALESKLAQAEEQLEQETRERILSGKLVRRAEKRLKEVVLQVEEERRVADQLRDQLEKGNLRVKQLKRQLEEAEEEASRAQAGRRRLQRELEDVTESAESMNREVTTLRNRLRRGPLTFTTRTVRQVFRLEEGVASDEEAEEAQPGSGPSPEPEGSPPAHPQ

Compound	Kd
Cn1ncc(Cl)c1-c1cc(C(=O)N[C@H](CN)Cc2cccc(F)c2)sc1Cl [AFURESERTIB]	> 30 µM (inactive)
O=C(c1ccc(F)c(F)c1Nc1ccc(I)cc1F)N1CC(O)([C@@H]2CCCCN2)C1 [COBIMETINIB]	> 30 µM (inactive)
CCn1c(=O)c(-c2cc[nH]n2)cc2c(C)nc(N)nc21 [VOXTALISIB]	> 30 µM (inactive)

Molecular target: Protein kinase C alpha type (Homo sapiens, UniProt P17252)

Compound	Kd
Cn1ncc(Cl)c1-c1cc(C(=O)N[C@H](CN)Cc2cccc(F)c2)sc1Cl [AFURESERTIB]	21.4 µM (active)
O=C(c1ccc(F)c(F)c1Nc1ccc(I)cc1F)N1CC(O)([C@@H]2CCCCN2)C1 [COBIMETINIB]	> 30 µM (inactive)
CCn1c(=O)c(-c2cc[nH]n2)cc2c(C)nc(N)nc21 [VOXTALISIB]	> 30 µM (inactive)

Molecular target: 26S proteasome regulatory subunit 6B (Homo sapiens, UniProt P43686)

Compound	Kd
Cn1ncc(Cl)c1-c1cc(C(=O)N[C@H](CN)Cc2cccc(F)c2)sc1Cl [AFURESERTIB]	> 30 µM (inactive)
O=C(c1ccc(F)c(F)c1Nc1ccc(I)cc1F)N1CC(O)([C@@H]2CCCCN2)C1 [COBIMETINIB]	> 30 µM (inactive)
CCn1c(=O)c(-c2cc[nH]n2)cc2c(C)nc(N)nc21 [VOXTALISIB]	> 30 µM (inactive)

Molecular target: T3, Serine/threonine-protein kinase STK11 (Homo sapiens, UniProt Q15831)
T3 sequence (Q15831 whole entry): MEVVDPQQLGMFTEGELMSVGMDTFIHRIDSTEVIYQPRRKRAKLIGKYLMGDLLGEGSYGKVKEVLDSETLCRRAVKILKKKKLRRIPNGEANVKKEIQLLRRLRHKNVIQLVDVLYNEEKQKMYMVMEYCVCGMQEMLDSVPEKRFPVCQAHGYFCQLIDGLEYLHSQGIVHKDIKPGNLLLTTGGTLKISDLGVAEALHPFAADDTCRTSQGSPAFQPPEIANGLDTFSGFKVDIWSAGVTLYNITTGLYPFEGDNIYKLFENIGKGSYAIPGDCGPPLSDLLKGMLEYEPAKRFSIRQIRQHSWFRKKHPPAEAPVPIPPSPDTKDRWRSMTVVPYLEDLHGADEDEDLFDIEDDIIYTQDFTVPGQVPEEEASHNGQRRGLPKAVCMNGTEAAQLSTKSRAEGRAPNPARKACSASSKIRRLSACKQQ

Compound	Kd
Cn1ncc(Cl)c1-c1cc(C(=O)N[C@H](CN)Cc2cccc(F)c2)sc1Cl [AFURESERTIB]	> 30 µM (inactive)
O=C(c1ccc(F)c(F)c1Nc1ccc(I)cc1F)N1CC(O)([C@@H]2CCCCN2)C1 [COBIMETINIB]	> 30 µM (inactive)

Molecular target: Wee1-like protein kinase (Homo sapiens, UniProt P30291)
Sequence (P30291 whole entry): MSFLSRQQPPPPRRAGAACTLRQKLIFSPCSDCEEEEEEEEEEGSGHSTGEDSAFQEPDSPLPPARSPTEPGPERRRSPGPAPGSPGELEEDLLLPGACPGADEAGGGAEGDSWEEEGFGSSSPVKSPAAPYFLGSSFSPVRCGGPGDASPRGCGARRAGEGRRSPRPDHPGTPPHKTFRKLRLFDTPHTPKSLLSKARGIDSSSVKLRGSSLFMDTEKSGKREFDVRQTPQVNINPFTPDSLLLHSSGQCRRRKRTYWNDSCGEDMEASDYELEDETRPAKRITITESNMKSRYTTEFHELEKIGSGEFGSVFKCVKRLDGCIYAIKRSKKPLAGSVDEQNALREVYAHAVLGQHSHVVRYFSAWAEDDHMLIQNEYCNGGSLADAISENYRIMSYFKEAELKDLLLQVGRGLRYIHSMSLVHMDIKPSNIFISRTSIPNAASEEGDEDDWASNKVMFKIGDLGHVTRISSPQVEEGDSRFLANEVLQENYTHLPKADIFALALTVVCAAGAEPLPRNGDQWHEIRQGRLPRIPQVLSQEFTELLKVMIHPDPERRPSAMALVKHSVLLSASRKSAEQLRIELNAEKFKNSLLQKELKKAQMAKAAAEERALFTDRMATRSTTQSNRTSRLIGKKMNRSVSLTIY

Compound	Kd
Cn1ncc(Cl)c1-c1cc(C(=O)N[C@H](CN)Cc2cccc(F)c2)sc1Cl [AFURESERTIB]	> 30 µM (inactive)
O=C(c1ccc(F)c(F)c1Nc1ccc(I)cc1F)N1CC(O)([C@@H]2CCCCN2)C1 [COBIMETINIB]	> 30 µM (inactive)
CCn1c(=O)c(-c2cc[nH]n2)cc2c(C)nc(N)nc21 [VOXTALISIB]	> 30 µM (inactive)

Molecular target: T4, Tyrosine--tRNA ligase, cytoplasmic (Homo sapiens, UniProt P54577)
T4 sequence (P54577 whole entry): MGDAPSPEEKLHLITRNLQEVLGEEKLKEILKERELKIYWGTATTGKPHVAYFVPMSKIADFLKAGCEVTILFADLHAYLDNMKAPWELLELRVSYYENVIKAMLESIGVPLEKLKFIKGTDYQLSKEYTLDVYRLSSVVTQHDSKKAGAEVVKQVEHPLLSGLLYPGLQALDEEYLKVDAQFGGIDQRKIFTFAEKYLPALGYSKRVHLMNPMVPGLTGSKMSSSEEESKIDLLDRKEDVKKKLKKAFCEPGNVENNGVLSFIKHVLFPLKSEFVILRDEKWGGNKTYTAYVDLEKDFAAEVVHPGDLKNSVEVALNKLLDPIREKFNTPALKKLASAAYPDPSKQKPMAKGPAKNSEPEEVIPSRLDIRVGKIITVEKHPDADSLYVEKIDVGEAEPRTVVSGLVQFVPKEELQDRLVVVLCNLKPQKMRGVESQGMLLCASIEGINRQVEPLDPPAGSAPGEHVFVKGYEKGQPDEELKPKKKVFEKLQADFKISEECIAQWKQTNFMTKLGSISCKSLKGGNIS

Compound	Kd
Cn1ncc(Cl)c1-c1cc(C(=O)N[C@H](CN)Cc2cccc(F)c2)sc1Cl [AFURESERTIB]	> 30 µM (inactive)
O=C(c1ccc(F)c(F)c1Nc1ccc(I)cc1F)N1CC(O)([C@@H]2CCCCN2)C1 [COBIMETINIB]	> 30 µM (inactive)
CCn1c(=O)c(-c2cc[nH]n2)cc2c(C)nc(N)nc21 [VOXTALISIB]	> 30 µM (inactive)
